Results from patent US8586318B2, “Restricted access media and methods for making restricted access media” (Board of Regents of the University of Nebraska, priority 2008, dated 2013).

Assays:
[1] = tested on: anti-fluorescein antibodies; assay: Ultrafast extraction on anti-fluorescein RAM column, flow-based; format: binding, mouse
Protocol: For chromatographic studies, 200 μL injections of samples containing 0.5 nM fluorescein or 3 nM of fluorescein-BSA were made at flow rates ranging from 0.1-1.0 mL/min. The injections were performed at room temperature using 0.067 M potassium phosphate buffer (pH 7.4) as the application buffer. Two or three replicate injections were made at each flow rate onto columns containing the anti-fluorescein IA-RAM support or the corresponding control support. […] The fraction of extracted fluorescein was calculated by comparing the areas of the non-retained peaks to those obtained using a control column. […] The retained species were eluted between studies by washing the column with a 0.067 M potassium phosphate buffer (pH 2.5) for 20 minutes. Elution was followed by a column regeneration step by applying 0.067 M phosphate application buffer (pH 7.4) for 10 minutes before each new sample injection. The RAM, specifically an IA-RAM made using anti-fluorescein antibody, was tested for use in a flow-based system for the selective, ultrafast extraction of fluorescein versus a fluorescein-BSA conjugate. This was accomplished by comparing the results obtained with a RAM column to results for a control column containing only diol silica.

[2] = tested on: anti-fluorescein antibodies; assay: Static binding of fluorescein or fluorescein-BSA to anti-fluorescein RAM support; set-up: species or system mouse; settings: 100 Å silica
Protocol: The binding properties of the anti-fluorescein IA-RAM support were initially determined before and after digestion by reacting this support with a known excess of fluorescein (sodium salt, MW=376 Da) or fluorescein-BSA conjugate (average MW=69.5 kDa). Studies were performed using anti-fluorescein antibodies covalently linked to Nucleosil Si-100 using the hydrazide-activation method. A 2 mg portion of the desired anti-fluorescein support was incubated with shaking in 1 mL of a 0.040 μg/mL fluorescein solution or 1 mL of 20 μg/mL fluorescein-BSA solution in 0.1 M potassium phosphate buffer (pH 7.4) at 4° C. for 30 minutes. The mixtures were centrifuged and the supernatant was analyzed for fluorescein or fluorescein-BSA content based on the fluorescence of the solutions. Standard solutions that contained 0.002-2.0 μg/mL fluorescein or 1-30 μg/mL of the fluorescein-BSA conjugate in 0.10 M potassium phosphate buffer (pH 7.4) were also analyzed. The amount of fluorescein or fluorescein-BSA bound to the anti-fluorescein IA-RAM supports was determined by comparing the final and initial concentrations of fluorescein or fluorescein-BSA that remained in solution. […] The fluorescein or fluorescein-BSA that was bound by anti-fluorescein antibodies was determined by determining the amount of the analytes that remained in solution after the incubation step.

- original binding capacity of the covalently linked antibodies ([2]; before papain treatment, hydrazide method, 30 minutes incubation): 0.69 (±0.01) mg/g silica
- decrease of binding capacity after treatment with papain ([2]; papain 90 minutes at 37° C., 1:100 (w/w)): 92%
Substance: fluorescein-BSA conjugate: fluorescein conjugate of bovine serum albumin, prepared using fluorescein isothiocyanate, 12 mol fluorescein/mol protein
- retention on anti-fluorescein RAM column (in words) ([1]; injected at 0.1 mL/min): no significant degree of binding
- extracted by anti-fluorescein RAM support ([1]; same conditions as used for fluorescein): less than 1%
